Test results published in patent publication US11261179B2, “Small molecules” (University of Dundee, priority 2017, dated 2022).

Legend:
pVHL30 = molecular target: T1, pVHL30 (Homo sapiens, UniProt P40337); experiment: Western blot of VHL levels in U2OS cells; format: cell-based
T1 construct: endogenous in cells; host or cells: U2OS
Method: For single time point treatment experiments, cells were transferred in 6-well plates with 5×10^5 cells per well in 2 ml media in order to achieve 80% confluence the following day. Stock concentrations of compounds were prepared by solubilizing the powder in 100% v/v DMSO to the final desired stock concentration.
On the day of treatment, all compound samples were prepared as 100-fold concentrated compound solution using DMEM just before treatment. The experiment samples (20 μL) were added to the 6 well plate containing 2 ml of media. The final DMSO concentration was 0.1% v/v. Cells were incubated at 37° C. and 5% CO2 for the desired time before harvesting.
For time dependent treatment, cells were transferred in 6-well plates with 3×10^5 cells per well in 2 ml media. Samples were prepared as detailed above or the single time point experiments. Treatment was conducted at given time points prior to harvest.
Cells were lysed in lysis buffer (20 mM Tris pH 8, 150 mM NaCl, 1% Triton x100) and a protease inhibitor cocktail (Roche) per 10 ml buffer. For protein extracts, the dishes were placed on ice. The media was aspirated and the tissue layer washed twice with ice-cold phosphate buffer saline (PBS). Lysis buffer (120 μl) was added and the cells detached from the surface with a cell scraper. After removal of the insoluble fraction by centrifugation, the protein concentration of the supernatant was determined by Pierce™ Coomassie (Bradford) Protein Assay Kit. Protein extracts were fractionated by SDS-PAGE on 4-12% Tris-Acetate NuPage® Novex® (Life Technologies) polyacrylamide gels and transferred to a nitrocellulose membrane using wet transfer. The membrane was then blocked with 5% w/v Bovine serum albumin (BSA) in Tris-buffered saline (TBS) with 0.1% w/v Tween-20. For detecting proteins the following primary antibodies in the given concentrations were used: anti-β-Actin (Cell Signaling Technology, 4970S, 13E5) 1:2000, anti-VHL (Cell Signaling Technology, #68547) 1:1000, anti-Hif-1α (BD Biosciences, 610959, clone 54) 1:1000, anti-hydroxy-HIF-1α (Hyp564) (Cell Signaling Techonology; #3434) 1:1000, anti-PHD2 (Bethyl Laboratories; A300-322A) 1:1000, anti-PHD3 (Bethyl Laboratories; A300-327A) 1:1000, anti-CRBN (Proteintech; 11435-1-AP) 1:1000.
Following incubation with a horseradish peroxidase-conjugated secondary antibody (Cell Signaling Technology), the signal was developed using enhanced chemiluminescence (ECL) Western Blotting Detection Kit (Amersham) on Amersham Hyperfilm ECL film (Amersham).
Band quantification was performed using ImageJ software and reported as relative amount as ratio of the each protein band relative to the lane's loading control. The values obtained were then normalized to 0.1% DMSO vehicle control.

[1] = test system: HIF-dependent luciferase activity (HeLa-HRE and U2OS-HRE cells); experiment: HRE-luciferase reporter assay; format: cell-based, Human; conditions: different concentrations and times
Method: It was performed essentially as described by Frost et al.^34 Briefly, cells (HeLa and U2OS) stably expressing an HRE-luciferase reporter were treated for the indicated times with compounds. Cells were harvested in passive lysis buffer (Promega) and subjected to three freeze-thaw cycles. The soluble lysate fraction was used for assays, performed according to the manufacturer's instructions (Promega) using a Berthold Lumat LB 9507 Luminometer. Results were normalized for protein concentration, and reported as mean±s.e.m. from three biological replicates.

pVHL30 (VCB complex) = pVHL30 (VCB complex) (Homo sapiens, UniProt P40337); experiment: ITC titration against VCB, long VHL isoform; format: binding
Method: Titrations were performed on an ITC200 micro-calorimeter (GE Healthcare). […] The final DMSO concentration was 0.15% v/v. VBC protein experiments were carried out in a buffer containing 20 mM Bis-tris propane, 150 mM NaCl, 1 mM TCEP, 0.15% v/v DMSO, pH 7.4. The titrations consisted of 19 injections of 2 μL compounds solution (150 μM, in the syringe) at a rate of 2 s/μL at 120 s time intervals into the VCB protein solution (20 μM, in the cell). An initial injection of compound solution (0.4 μL) was made and discarded during data analysis. All experiments were performed at 25° C., whilst stirring the syringe at 600 rpm. The data were fitted to a single binding site model to obtain the stoichiometry n, the dissociation constant Kd and the enthalpy of binding ΔH using the Microcal LLC ITC200 Origin software provided by the manufacturer.

VCB complex = VCB complex (Homo sapiens, UniProt P40337); experiment: Size exclusion chromatography of VCB complex formation; format: binding; conditions: SEC, VCB 50 μM, compound 30 μM
Method: SEC experiments were carried out in a AKTA pure system (GE Healthcare) at room temperature. The oligomeric state of the VCB complex in solution was analyzed by gel filtration in a buffer containing 20 mM Bis-Tris (pH 7), 150 mM NaCl and 1 mM 1,4-dithiothreitol (DTT) using a Superdex 200 Increase 10/300 GL column (GE Healthcare) calibrated with globular proteins of known molecular weight (GE Healthcare, 28-4038-41/42). […] Sample volume for each injection was 200 μL, and the flow rate was 0.5 mL/min. Peak elution was monitored using ultraviolet absorbance at 280 nm.

T1 sequence (P40337 whole entry): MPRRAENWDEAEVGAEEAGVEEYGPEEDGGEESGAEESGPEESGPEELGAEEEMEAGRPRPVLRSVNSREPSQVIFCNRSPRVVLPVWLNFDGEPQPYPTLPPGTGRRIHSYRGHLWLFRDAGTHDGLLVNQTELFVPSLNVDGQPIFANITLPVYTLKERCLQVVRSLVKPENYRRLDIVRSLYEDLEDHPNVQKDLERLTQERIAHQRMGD
Sequence of pVHL30 (VCB complex) (P40337 whole entry, canonical isoform): as the sequence (P40337 whole entry) above
Sequence of pVHL30 (VCB complex) (Q15370 1-104 partner limits assumed): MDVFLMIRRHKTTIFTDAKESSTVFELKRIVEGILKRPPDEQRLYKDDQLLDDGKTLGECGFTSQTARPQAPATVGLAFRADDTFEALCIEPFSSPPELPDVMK
Sequence of pVHL30 (VCB complex) (Q15369 17-112 partner limits assumed): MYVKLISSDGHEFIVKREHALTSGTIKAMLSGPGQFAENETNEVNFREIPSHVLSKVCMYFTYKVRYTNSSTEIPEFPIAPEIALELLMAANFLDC
Sequence of VCB complex (P40337 54-213 limits assumed): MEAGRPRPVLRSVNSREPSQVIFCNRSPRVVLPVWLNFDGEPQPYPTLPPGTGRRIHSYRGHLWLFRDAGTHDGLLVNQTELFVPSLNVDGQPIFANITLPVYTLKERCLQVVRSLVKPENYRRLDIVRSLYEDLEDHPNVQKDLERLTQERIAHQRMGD
Sequence of VCB complex (Q15370 1-104 partner limits assumed): as the sequence (Q15370 1-104 partner limits assumed) above
Sequence of VCB complex (Q15369 17-112 partner limits assumed): as the sequence (Q15369 17-112 partner limits assumed) above

Cc1ncsc1-c1ccc(CNC(=O)[C@@H]2C[C@@H](O)CN2C(=O)[C@@H](NC(=O)COCCOCCOCCOCCOCCOCC(=O)N[C@H](C(=O)N2C[C@H](O)C[C@H]2C(=O)NCc2ccc(-c3scnc3C)cc2)C(C)(C)C)C(C)(C)C)cc1 [CM11, N^1,N^20-bis((S)-1-((2S,4R)-4-hydroxy-2-((4-(4-methylthiazol-5-yl)benzyl)carbamoyl)pyrrolidin-1-yl)-3,3-dimethyl-1-oxobutan-2-yl)-3,6,9,12,15,18-hexaoxaicosanediamide]
profile of cellular activity (pVHL30; 10 h, 1 nM-100 μM): consistent profile of cellular activity | cellular efficacy at longer time points (pVHL30; time course): retained their efficacy | time of treatment to complete degradation of pVHL30 (pVHL30; time course): 1 h | HIF-dependent luciferase activity relative to DMSO [1]: no increase in HIF-dependent luciferase activity was detected | Kd (pVHL30 (VCB complex)): 25 ± 3 nM | n (stoichiometry) (pVHL30 (VCB complex)): 0.866 ± 0.003 | ΔG (pVHL30 (VCB complex)): -10.4 ± 0.1 kcal/mol | ΔH (pVHL30 (VCB complex)): -11.3 ± 0.1 kcal/mol | α (cooperativity/avidity) (pVHL30 (VCB complex)): 4 | −TΔS (pVHL30 (VCB complex)): -0.9 ± 0.1 kcal/mol | molecular weight of species of shifted peak (VCB complex): ~90 kDa | shift of VCB peak / ternary complex formation (VCB complex): migrates more quickly
